US20120302607A1, “C4-SUBSTITUTED ALPHA-KETO OXAZOLES” (The Scripps Research Institute, priority 2008, published 2012)
Like-named read-outs stand apart in the source and are kept apart here.

Tests used:
[1] = target: T1, membrane-associated hydrolase (KIAA1363) (UniProt Q8BLF1); assay: Proteome-wide serine hydrolase selectivity screening, KIAA1363; assay type: biochemical; conditions: selectivity screening
T1 sequence (Q8BLF1 1-408): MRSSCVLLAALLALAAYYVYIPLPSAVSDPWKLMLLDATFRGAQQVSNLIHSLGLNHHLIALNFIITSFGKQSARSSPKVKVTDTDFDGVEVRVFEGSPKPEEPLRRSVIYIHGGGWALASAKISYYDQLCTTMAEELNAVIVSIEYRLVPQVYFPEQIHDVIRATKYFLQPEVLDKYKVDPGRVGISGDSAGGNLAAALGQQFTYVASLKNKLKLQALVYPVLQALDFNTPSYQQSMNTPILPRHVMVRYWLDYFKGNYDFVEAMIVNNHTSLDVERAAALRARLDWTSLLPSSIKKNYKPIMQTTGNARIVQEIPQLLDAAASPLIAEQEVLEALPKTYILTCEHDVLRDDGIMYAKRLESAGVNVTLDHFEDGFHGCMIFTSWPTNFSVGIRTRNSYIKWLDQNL

[2] = target: T2, FAAH (UniProt O08914); assay: Proteome-wide serine hydrolase selectivity screening, FAAH; assay type: biochemical, human
T2 sequence (O08914 1-579): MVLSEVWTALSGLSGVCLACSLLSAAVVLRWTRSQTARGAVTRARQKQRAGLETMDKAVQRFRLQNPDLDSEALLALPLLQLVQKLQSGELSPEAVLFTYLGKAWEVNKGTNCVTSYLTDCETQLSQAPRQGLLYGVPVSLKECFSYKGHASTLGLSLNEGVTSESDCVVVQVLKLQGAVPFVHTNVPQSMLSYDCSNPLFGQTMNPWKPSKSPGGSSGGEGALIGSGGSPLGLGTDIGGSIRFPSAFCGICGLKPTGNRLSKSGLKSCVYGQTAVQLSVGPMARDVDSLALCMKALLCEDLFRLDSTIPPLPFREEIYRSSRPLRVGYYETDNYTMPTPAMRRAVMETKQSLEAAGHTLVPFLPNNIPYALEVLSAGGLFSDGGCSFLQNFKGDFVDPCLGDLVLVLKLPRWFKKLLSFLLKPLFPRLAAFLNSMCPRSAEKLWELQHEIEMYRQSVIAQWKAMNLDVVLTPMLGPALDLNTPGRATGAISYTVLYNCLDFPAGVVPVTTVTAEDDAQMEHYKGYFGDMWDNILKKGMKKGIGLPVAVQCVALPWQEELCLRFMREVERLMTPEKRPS

[3] = target: T3, triacylglycerol hydrolase (TGH) (UniProt Q8VCT4); assay: Proteome-wide serine hydrolase selectivity screening, TGH; assay type: biochemical, human; conditions: selectivity screening
T3 sequence (Q8VCT4 1-565): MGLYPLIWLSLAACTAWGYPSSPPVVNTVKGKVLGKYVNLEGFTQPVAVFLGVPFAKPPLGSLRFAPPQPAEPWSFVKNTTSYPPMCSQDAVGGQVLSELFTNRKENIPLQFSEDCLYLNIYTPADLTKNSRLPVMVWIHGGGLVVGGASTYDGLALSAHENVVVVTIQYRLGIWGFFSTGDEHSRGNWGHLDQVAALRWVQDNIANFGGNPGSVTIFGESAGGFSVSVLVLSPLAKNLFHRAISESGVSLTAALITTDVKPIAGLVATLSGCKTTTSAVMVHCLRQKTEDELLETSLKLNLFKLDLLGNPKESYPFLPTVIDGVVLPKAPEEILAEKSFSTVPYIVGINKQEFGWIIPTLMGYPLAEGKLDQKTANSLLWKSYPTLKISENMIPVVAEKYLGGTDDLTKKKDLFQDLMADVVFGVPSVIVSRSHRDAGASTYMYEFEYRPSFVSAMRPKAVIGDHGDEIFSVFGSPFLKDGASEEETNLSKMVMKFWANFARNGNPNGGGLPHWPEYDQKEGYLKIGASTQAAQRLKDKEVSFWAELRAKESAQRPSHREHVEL

[4] = target: T4, truncated rat FAAH (rFAAH) (Rattus norvegicus, UniProt P97612); assay: Rat FAAH inhibition enzyme assay (14C-oleamide hydrolysis, Dixon plot); assay type: biochemical
T4 construct: The truncated rat FAAH (rFAAH) was expressed in E. coli and purified as described by Patricelli et al; made in house; host or cells: E. coli
T4 sequence (P97612 30-579 limits assumed): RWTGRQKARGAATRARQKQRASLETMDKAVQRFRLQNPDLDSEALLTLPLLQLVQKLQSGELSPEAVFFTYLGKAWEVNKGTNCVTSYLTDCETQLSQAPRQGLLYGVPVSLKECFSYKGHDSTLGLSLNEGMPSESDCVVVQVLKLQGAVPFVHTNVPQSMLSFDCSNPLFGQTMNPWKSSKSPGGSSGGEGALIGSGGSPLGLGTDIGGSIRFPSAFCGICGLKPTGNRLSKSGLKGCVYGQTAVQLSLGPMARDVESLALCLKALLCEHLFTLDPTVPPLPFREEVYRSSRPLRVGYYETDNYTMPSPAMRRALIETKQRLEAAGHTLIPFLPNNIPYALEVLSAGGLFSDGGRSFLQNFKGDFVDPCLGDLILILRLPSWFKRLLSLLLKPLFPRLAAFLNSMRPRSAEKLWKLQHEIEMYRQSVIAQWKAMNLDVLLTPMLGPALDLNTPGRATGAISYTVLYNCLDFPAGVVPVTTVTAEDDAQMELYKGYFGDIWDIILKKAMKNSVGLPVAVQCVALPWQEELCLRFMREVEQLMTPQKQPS
Experimental: The purified recombinant rFAAH was used in the inhibition assays unless otherwise indicated.
The ^14C-labeled oleamide (substrate) and oleic acid (product) were extracted with EtOAc and analyzed by TLC. The Ki of the inhibitor was calculated using a Dixon plot (standard deviations are provided in the Supporting Information tables).

[5] = % hydration or hemiketal formation by 1H and 13C NMR in solvent; assay type: physicochemical; conditions: for form in protic solution: at C4, not C2, 1H and 13C NMR
Source text: The evaluation of Ki provides information about active site binding. […] More subtly, aldehyde 4g (and trifluoromethyl ketone 4i) was established to exist in protic solution as gem diols (at C4, not C2; ^1H and ^13C NMR, data in Examples below).

[6] = tested on: membrane-associated hydrolase (KIAA1363); assay: Proteome-wide serine hydrolase selectivity screening, KIAA1363; assay type: biochemical; conditions: value in parentheses; FAAH versus KIAA1363
[7] = tested on: triacylglycerol hydrolase (TGH); assay: Proteome-wide serine hydrolase selectivity screening, TGH; assay type: biochemical, human; conditions: FAAH versus TGH; for TGH (selectivity): value in parentheses
[8] = Table 1, purified recombinant rFAAH, pH 9.0, read-out: Rat FAAH inhibition Ki
[9] = Table 4, value ± error, read-out: Ki, inhibition results with calculated errors
[10] = CD3OD, at the C4 substituent carbonyl

O=C(CCCCCCc1ccccc1)c1ncco1 [Compound 4a]
IC50 [1]: 20000 nM | IC50 [2]: 2500 nM | IC50 [3]: 20 nM

O=C(CCCCCCc1ccccc1)c1nc(Br)co1 [Compound 4b, 1-(4-Bromooxazol-2-yl)-7-phenylheptan-1-one]
Ki [4, 8]: 3 nM | Ki [4, 9]: 3 ± 0.02 nM

O=C(CCCCCCc1ccccc1)c1nc(Cl)co1 [Compound 4c, 1-(4-Chlorooxazol-2-yl)-7-phenylheptan-1-one]
Ki [4, 8]: 4 nM | Ki [4, 9]: 4 ± 0.05 nM

O=C(CCCCCCc1ccccc1)c1nc(I)co1 [Compound 4d, 1-(4-Iodooxazol-2-yl)-7-phenylheptan-1-one]
Ki [4, 8]: 6.5 nM | Ki [4, 9]: 6.5 ± 0.26 nM

Cc1coc(C(=O)CCCCCCc2ccccc2)n1 [Compound 4e, 1-(4-Methyloxazol-2-yl)-7-phenylheptan-1-one]
Ki [4, 8]: 520 nM | Ki [4, 9]: 520 ± 1 nM

CSc1coc(C(=O)CCCCCCc2ccccc2)n1 [Compound 4f, 1-(4-(Methylthio)oxazol-2-yl)-7-phenylheptan-1-one]
Ki [4, 8]: 29 nM | Ki [4, 9]: 29 ± 0.2 nM

O=Cc1coc(C(=O)CCCCCCc2ccccc2)n1 [Compound 4g, 2-(7-Phenylheptanoyl)oxazole-4-carbaldehyde]
% Hydration or Hemiketal Formation [5, 10]: >95% for CHO | % Hydration or Hemiketal Formation ([5]; CDCl3): 0% | form in protic solution [5]: gem diols | Ki [4, 8]: 55 nM | Ki [4, 9]: 55 ± 5 nM

CC(=O)c1coc(C(=O)CCCCCCc2ccccc2)n1 [Compound 4h, 1-(4-Acetyloxazol-2-yl)-7-phenylheptan-1-one]
Ki [4, 8]: 2 nM | Ki [4, 9]: 2 ± 0.07 nM

O=C(CCCCCCc1ccccc1)c1nc(C(=O)C(F)(F)F)co1 [Compound 4i, 7-Phenyl-1-(4-(2,2,2-trifluoroacetyl)oxazol-2-yl)heptan-1-one]
form in protic solution [5]: gem diols | Ki [4, 8]: 470 nM | Ki [4, 9]: 470 ± 2 nM

COC(=O)c1coc(C(=O)CCCCCCc2ccccc2)n1 [Compound 4j, Methyl 2-(7-Phenylheptanoyl)oxazole-4-carboxylate]
Ki [4, 8]: 3.4 nM | Ki [4, 9]: 3.4 ± 0.05 nM

O=C(CCCCCCc1ccccc1)c1nc(-c2ccccn2)co1 [Compound 4k, 7-Phenyl-1-(4-(pyridin-2-yl)oxazol-2-yl)heptan-1-one]
IC50 [1]: > 100000 nM | KIAA1363 (selectivity) [6]: (>3000) | IC50 [2]: 30 nM | Ki [4, 8]: 1.9 nM | Ki ([4]; Table 2, read-out: FAAH Ki): 1.9 nM | Ki [4, 9]: 1.9 ± 0.02 nM | enhancement in FAAH selectivity ([7]; relative to 4a, text b175): > 40,000 fold | TGH (selectivity) [7]: (330) | IC50 [3]: 10000 nM

O=C(CCCCCCc1ccccc1)c1nc(-c2cccnc2)co1 [Compound 4l, 7-Phenyl-1-(4-(pyridin-3-yl)oxazol-2-yl)heptan-1-one]
% Hydration or Hemiketal Formation [5, 10]: >95% for COCF3 | % Hydration or Hemiketal Formation ([5]; CDCl3): 33% | Ki [4, 8]: 18 nM | Ki [4, 9]: 18 ± 0.1 nM

O=C(CCCCCCc1ccccc1)c1nc(-c2ccncc2)co1 [Compound 4m, 7-phenyl-1-(4-(pyridin-4-yl)oxazol-2-yl)heptan-1-one]
IC50 [1]: > 100000 nM | KIAA1363 (selectivity) [6]: (>700) | IC50 [2]: 140 nM | Ki [4, 8]: 1.6 nM | Ki ([4]; Table 2, read-out: FAAH Ki): 1.7 nM | Ki [4, 9]: 1.6 ± 0.01 nM | TGH (selectivity) [7]: (5) | IC50 [3]: 700 nM

O=C(CCCCCCc1ccccc1)c1nc(-c2ccccc2)co1 [Compound 4n, 7-Phenyl-1-(4-phenyloxazol-2-yl)heptan-1-one]
Ki [4, 8]: 65 nM | Ki [4, 9]: 65 ± 4.4 nM

O=C(O)c1coc(C(=O)CCCCCCc2ccccc2)n1 [Compound 4o, 2-(7-Phenylheptanoyl)oxazole-4-carboxylic Acid]
IC50 [1]: > 100000 nM | KIAA1363 (selectivity) [6]: (>200) | IC50 [2]: 500 nM | Ki [4, 8]: 53 nM | Ki ([4]; Table 2, read-out: FAAH Ki): 53 nM | Ki [4, 9]: 53 ± 1 nM | TGH (selectivity) [7]: (5) | IC50 [3]: 2500 nM

NC(=O)c1coc(C(=O)CCCCCCc2ccccc2)n1 [Compound 4p, 2-(7-Phenylheptanoyl)oxazole-4-carboxamide]
Ki [4, 8]: 1.6 nM | Ki [4, 9]: 1.6 ± 0.001 nM

CNC(=O)c1coc(C(=O)CCCCCCc2ccccc2)n1 [Compound 4q, N-Methyl-2-(7-phenylheptanoyl)oxazole-4-carboxamide]
Ki [4, 8]: 1.8 nM | Ki [4, 9]: 1.8 ± 0.005 nM

CN(C)C(=O)c1coc(C(=O)CCCCCCc2ccccc2)n1 [Compound 4r, N,N-Dimethyl-2-(7-phenylheptanoyl)oxazole-4-carboxamide]
Ki [4, 8]: 35 nM | Ki [4, 9]: 35 ± 0.1 nM

N#Cc1coc(C(=O)CCCCCCc2ccccc2)n1 [Compound 4s, 2-(7-Phenylheptanoyl)oxazole-4-carbonitrile]
IC50 [1]: 30000 nM | KIAA1363 (selectivity) [6]: (1500) | IC50 [2]: 20 nM | Ki [4, 8]: 0.5 nM | Ki ([4]; Table 2, read-out: FAAH Ki): 0.6 nM | Ki [4, 9]: 0.5 ± 0.009 nM | TGH (selectivity) [7]: (1.5) | IC50 [3]: 30 nM

O=C(CCCCCCc1ccccc1)c1nc(C(F)(F)F)co1 [Compound 4t, 7-Phenyl-1-(4-(trifluoromethyl)oxazol-2-yl)heptan-1-one]
IC50 [1]: 10000 nM | KIAA1363 (selectivity) [6]: (25) | IC50 [2]: 400 nM | Ki [4, 8]: 3.7 nM | Ki ([4]; Table 2, read-out: FAAH Ki): 3.7 nM | Ki [4, 9]: 3.7 ± 0.02 nM | TGH (selectivity) [7]: (0.15) | IC50 [3]: 60 nM

COc1coc(C(=O)CCCCCCc2ccccc2)n1 [Compound 4u, 1-(4-Methoxyoxazol-2-yl)-7-phenylheptan-1-one]
Ki [4, 8]: 740 nM | Ki [4, 9]: 740 ± 0.07 nM

N#Cc1cnc(C(=O)CCCCCCc2ccccc2)o1 [Compound 5b, reference compound]
IC50 [1]: > 100000 nM | IC50 [3]: 20 nM

O=C(CCCCCCc1ccccc1)c1ncc(-c2ccccn2)o1 [Compound 5c, reference compound]
IC50 [1]: > 100000 nM

O=C(O)c1cnc(C(=O)CCCCCCc2ccccc2)o1 [Compound 5d, reference compound]
IC50 [1]: > 100000 nM | IC50 [2]: 900 nM | IC50 [3]: > 100000 nM
